Laboratory results as given in the NIST ThermoML archive (doi:10.1016/j.tca.2014.06.026).

What was measured:
[1] = 101 kPa, Liquid; for speed of sound: Frequency=2 MHz, Sing-around technique in a fixed-path interferometer; for viscosity: Oscillating disk viscometry; for mass density: Vibrating tube method
[2] = xn = mol fraction of the nth substance listed; details: 101 kPa, Liquid, x1 = 1; for speed of sound: Frequency=2 MHz, Sing-around technique in a fixed-path interferometer; for viscosity: Oscillating disk viscometry; for mass density: Vibrating tube method

NC1CCCCC1 [cyclohexylamine]
[1]
Details	mass density [kg/m3]	speed of sound [m/s]	viscosity [mPa·s]
303.15 K	857.71	1397.8	1.797
308.15 K	853.14	1379.2	1.704
313.15 K	848.61	1360.6	1.617
318.15 K	844.07	1342	1.506

CN1CCCC1=O [N-methylpyrrolidone] + C1=CCCCC1
[2]
Details	mass density [kg/m3]	speed of sound [m/s]	viscosity [mPa·s]
303.15 K	1023.45	1552.8	1.511
308.15 K	1019.34	1526.4	1.409
313.15 K	1014.82	1501	1.332
318.15 K	1010.06	1478	1.21

CN1CCCC1=O [N-methylpyrrolidone] + NC1CCCCC1
[2]
Details	mass density [kg/m3]	speed of sound [m/s]	viscosity [mPa·s]
303.15 K	1023.45	1552.8	1.511
308.15 K	1019.34	1526.4	1.409
313.15 K	1014.82	1501	1.332
318.15 K	1010.06	1478	1.21

C1=CCCCC1 [cyclohexene]
[1]
Details	mass density [kg/m3]	speed of sound [m/s]	viscosity [mPa·s]
303.15 K	801.81	1252.1	0.581
308.15 K	797.25	1224.8	0.549
313.15 K	792.61	1196.6	0.516
318.15 K	788.02	1169.6	0.488

CN1CCCC1=O [N-methylpyrrolidone]
[1]
Details	mass density [kg/m3]	speed of sound [m/s]	viscosity [mPa·s]
303.15 K	1023.45	1552.8	1.511
308.15 K	1019.34	1526.4	1.409
313.15 K	1014.82	1501	1.332
318.15 K	1010.06	1478	1.21

CN1CCCC1=O [N-methylpyrrolidone] + OC1CCCCC1
[2]
Details	mass density [kg/m3]	speed of sound [m/s]	viscosity [mPa·s]
303.15 K	1023.45	1552.8	1.511
308.15 K	1019.34	1526.4	1.409
313.15 K	1014.82	1501	1.332
318.15 K	1010.06	1478	1.21

OC1CCCCC1 [cyclohexanol]
[1]
Details	mass density [kg/m3]	speed of sound [m/s]	viscosity [mPa·s]
303.15 K	941.32	1443.2	41.07
308.15 K	937.23	1419.6	27.95
313.15 K	933.48	1395.2	16.66
318.15 K	928.11	1370.8	8.888
